Measurements as given in patent US8637528B2, “Use of PDE7 inhibitors for the treatment of movement disorders” (Omeros Corporation, priority 2007, dated 2014).
pIC50: −log10 of the molar value. Entries after “also recorded” stand apart in the source; their conditions may differ.

Tests used:
MPTP-treated mice = assay: inked paw stride length in the MPTP mouse model of Parkinson's disease, panel of PDE7 inhibitors (Example 7); type: in vivo
Protocol: Adult male C57BL/6J; retired breeders, aged between 7-9 months Charles River Laboratories, Wilmington, Mass.), singly housed. Three groups of 35 mice were tested in series one week apart.
Mice received 2 subcutaneous injections of methylphenyltetrahydropyridine (“MPTP”) at a dose of 15 mg/kg (free base) with a 10-12 hour interval between injections. Control mice (sham lesion groups) were administered saline instead of MPTP.
Prior to injection with MPTP or saline, animals were pre-trained to walk across a clean sheet of paper into their home cage without stopping. For assessment of stride length, animals had their forepaws placed in black ink and the length of forepaw steps during normal walking (in a straight line only) was measured. The animals were immediately put back into their home cage upon completion of the task. Stride length was determined by measuring the distance between each step on the same side of the body, measuring from the middle toe of the first step to the heel of the second step. An average of at least four clear steps was calculated. The schedule for this experiment was as follows:
Because of the wide variation in aqueous solubility among these compounds, a number of different formulations were required. L-dopa was administered in 100 μl of phosphate buffered saline. For animals treated with L-dopa, the dopa decarboxylase inhibitor benserazide (100 μL of a 12.5 mg/kg solution) was administered 15 minutes prior to treatment with L-dopa in order to minimize the destruction of L-dopa in the peripheral blood. […] Therefore, the treatment effects observed are due solely to the PDE7 inhibitory compounds themselves. […] This phenomenon of “overshoot” has also been observed with L-dopa in MPTP-treated mice in which lower doses ameliorate hypoactivity while higher doses induce dyskinesias or uncontrolled movements (Lundblad M. et al., Exp Neurol.194(1):66-75 (2005); Pearce R. K. et al., Mov Disord. 10(6):731-40 (1995); Fredriksson, A. et al, Pharmacol-Toxicol. 67(4): 295-301 (1990)).
Retired breeder male mice were treated with either saline or 2×15 mg/kg MPTP to induce a Parkinsonian state (neurochemical loss of dopamine with corresponding behavioral deficits). On day one baseline stride length was measured and then mice were treated with either MPTP or with saline as a control. On day eight stride length was measured again, and the control value for stride length was derived from the stride length of saline-treated animals. The animals were then divided randomly into treatment groups. Compound OM955 (compound 3) was tested at 0.1 mg/kg, at 0.5 mg/kg, and at 0.1 mg/kg in combination with 1 mg/kg L-dopa.

PDE5A = PDE5A (Homo sapiens (Human), UniProt O76074); assay: PDE selectivity SPA assay, PDE5A; type: biochemical; conditions: IC50 against PDE5A divided by IC50 against PDE7A
Protocol: (§1) Phosphodiesterase activity was measured by a scintillation proximity assay (SPA, GE Healthcare: Product Code TRKQ7100) with [^3H]-cAMP as the substrate for PDEs 3A, 4A, 8A, or with [^3H]-cGMP as the substrate for PDEs 1B, 2A, 5A, 9A, 10A and 11A. Purified human PDE1B, PDE2A, PDE3A, PDE4A, PDE5A, PDE8A, PDE9A and PDE11A4 were obtained from BPS Bioscience, San Diego, Calif. Purified murine PDE10A was also obtained from BPS Biosciences. […] Therefore, the results obtained using murine PDE10A are believed to be representative of human PDE10.
(§2) The purified PDE enzymes were each diluted and stored in a solution containing 25 mM Tris-Cl (pH 8.0), 100 mM NaCl, 0.05% Tween 20, 50% glycerol, and 3 mM DTT. PDE assays were carried out in the following assay cocktail (final concentrations): 50 mM Tris-Cl (pH 8.0), 8.3 mM MgCl2, 1.7 mM EGTA, 0.5 mg/ml BSA, 2.5% DMSO and between 0.2 ng and 6 ng of the PDE protein (depending on the enzyme activity) in a final volume of 0.1 mL.
(§3) Reactions were initiated by addition of enzyme, incubated for 20 minutes at 30° C. and then terminated by the addition of 50 μl of SPA beads containing Zn^2+.
(§4) The mixture was shaken, and allowed to settle for 3 hours. Then the production of [^3H]-AMP or [^3H]-GMP from the substrate was quantitated by scintillation counting in a Wallac® plate counter. […]

PDE7A = PDE7A (Homo sapiens (Human), UniProt Q13946); assay: PDE7 phosphodiesterase scintillation proximity assay (SPA), PDE7A; type: biochemical; conditions: for Fold Selectivity, PDE7A: IC50 against PDE7A divided by IC50 against PDE7A; for selectivity for inhibition of the PDE7A enzyme as compared to the other PDEs: versus PDE1B, 2A, 3A, 4A, 5A, 8A, 9A, 10A, 11A
PDE4A = PDE4A (Homo sapiens (Human), UniProt P27815); assay: PDE selectivity SPA assay, PDE4A; type: biochemical; conditions: IC50 against PDE4A divided by IC50 against PDE7A
Protocol: as §1, §2, §3, §4

PDE11A = PDE11A (Homo sapiens (Human), UniProt Q9HCR9); assay: PDE selectivity SPA assay, PDE11A; type: biochemical; conditions: IC50 against PDE11A divided by IC50 against PDE7A
PDE10A = PDE10A (Mus musculus (Mouse), UniProt Q8CA95); assay: PDE selectivity SPA assay, PDE10A; type: biochemical; conditions: IC50 against murine PDE10A divided by IC50 against PDE7A
Protocol: as §1, §2, §3, §4

Sequence of PDE7A (Q13946 whole entry, looked up): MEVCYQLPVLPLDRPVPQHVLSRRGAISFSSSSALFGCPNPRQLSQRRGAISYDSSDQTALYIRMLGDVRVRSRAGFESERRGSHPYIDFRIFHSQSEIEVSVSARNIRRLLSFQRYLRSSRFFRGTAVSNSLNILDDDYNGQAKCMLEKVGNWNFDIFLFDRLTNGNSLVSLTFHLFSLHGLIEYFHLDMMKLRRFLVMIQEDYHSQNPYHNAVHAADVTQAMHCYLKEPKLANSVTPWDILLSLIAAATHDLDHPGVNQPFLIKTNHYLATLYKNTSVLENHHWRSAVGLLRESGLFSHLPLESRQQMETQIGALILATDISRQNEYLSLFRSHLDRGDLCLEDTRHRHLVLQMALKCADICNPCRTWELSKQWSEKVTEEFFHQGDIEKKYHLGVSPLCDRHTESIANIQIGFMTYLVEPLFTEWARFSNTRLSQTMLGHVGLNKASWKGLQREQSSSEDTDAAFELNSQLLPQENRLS
Sequence of PDE4A (P27815 whole entry): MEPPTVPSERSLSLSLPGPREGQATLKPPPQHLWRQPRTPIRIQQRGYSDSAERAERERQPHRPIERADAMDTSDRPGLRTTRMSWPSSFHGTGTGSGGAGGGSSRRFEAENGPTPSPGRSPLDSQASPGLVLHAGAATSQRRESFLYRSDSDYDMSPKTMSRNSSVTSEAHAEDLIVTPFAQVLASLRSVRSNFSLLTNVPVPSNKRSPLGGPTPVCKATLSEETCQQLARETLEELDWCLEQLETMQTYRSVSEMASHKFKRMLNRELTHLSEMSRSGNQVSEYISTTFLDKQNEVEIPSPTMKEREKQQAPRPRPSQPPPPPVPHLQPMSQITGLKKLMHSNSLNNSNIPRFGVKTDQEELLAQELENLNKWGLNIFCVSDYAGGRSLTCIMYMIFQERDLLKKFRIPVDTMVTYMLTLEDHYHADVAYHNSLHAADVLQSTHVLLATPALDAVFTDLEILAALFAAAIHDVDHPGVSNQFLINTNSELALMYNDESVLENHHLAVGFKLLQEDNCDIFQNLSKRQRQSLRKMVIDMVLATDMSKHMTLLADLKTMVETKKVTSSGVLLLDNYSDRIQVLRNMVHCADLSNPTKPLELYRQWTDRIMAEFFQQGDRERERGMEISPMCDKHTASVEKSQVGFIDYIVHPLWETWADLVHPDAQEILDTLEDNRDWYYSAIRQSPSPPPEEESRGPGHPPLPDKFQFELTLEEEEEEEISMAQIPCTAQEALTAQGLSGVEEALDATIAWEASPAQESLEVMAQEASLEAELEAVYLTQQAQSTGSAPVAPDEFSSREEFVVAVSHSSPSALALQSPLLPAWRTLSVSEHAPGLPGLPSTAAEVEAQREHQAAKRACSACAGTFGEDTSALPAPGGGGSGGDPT
Sequence of PDE10A (Q8CA95 whole entry): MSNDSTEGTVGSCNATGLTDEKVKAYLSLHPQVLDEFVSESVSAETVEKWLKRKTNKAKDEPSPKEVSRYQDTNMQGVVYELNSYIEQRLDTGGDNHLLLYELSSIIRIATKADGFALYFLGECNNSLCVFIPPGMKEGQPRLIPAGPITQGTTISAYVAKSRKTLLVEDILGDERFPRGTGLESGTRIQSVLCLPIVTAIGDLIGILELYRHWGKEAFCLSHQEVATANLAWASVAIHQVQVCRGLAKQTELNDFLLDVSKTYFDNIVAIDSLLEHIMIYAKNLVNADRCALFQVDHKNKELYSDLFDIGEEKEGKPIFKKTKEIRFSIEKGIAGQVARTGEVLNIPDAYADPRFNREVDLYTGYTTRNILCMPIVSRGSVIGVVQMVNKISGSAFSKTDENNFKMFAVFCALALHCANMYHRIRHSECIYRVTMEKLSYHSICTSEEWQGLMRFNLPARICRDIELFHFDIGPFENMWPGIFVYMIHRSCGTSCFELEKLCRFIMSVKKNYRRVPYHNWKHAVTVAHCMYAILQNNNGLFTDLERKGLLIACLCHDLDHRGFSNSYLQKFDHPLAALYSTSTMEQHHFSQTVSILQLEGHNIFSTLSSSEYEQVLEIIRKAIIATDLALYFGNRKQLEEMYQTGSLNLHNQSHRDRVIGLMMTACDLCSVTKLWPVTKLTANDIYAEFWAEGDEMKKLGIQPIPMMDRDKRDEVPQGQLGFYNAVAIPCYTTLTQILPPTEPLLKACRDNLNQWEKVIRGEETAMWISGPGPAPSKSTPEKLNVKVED
Sequence of PDE11A (Q9HCR9 whole entry): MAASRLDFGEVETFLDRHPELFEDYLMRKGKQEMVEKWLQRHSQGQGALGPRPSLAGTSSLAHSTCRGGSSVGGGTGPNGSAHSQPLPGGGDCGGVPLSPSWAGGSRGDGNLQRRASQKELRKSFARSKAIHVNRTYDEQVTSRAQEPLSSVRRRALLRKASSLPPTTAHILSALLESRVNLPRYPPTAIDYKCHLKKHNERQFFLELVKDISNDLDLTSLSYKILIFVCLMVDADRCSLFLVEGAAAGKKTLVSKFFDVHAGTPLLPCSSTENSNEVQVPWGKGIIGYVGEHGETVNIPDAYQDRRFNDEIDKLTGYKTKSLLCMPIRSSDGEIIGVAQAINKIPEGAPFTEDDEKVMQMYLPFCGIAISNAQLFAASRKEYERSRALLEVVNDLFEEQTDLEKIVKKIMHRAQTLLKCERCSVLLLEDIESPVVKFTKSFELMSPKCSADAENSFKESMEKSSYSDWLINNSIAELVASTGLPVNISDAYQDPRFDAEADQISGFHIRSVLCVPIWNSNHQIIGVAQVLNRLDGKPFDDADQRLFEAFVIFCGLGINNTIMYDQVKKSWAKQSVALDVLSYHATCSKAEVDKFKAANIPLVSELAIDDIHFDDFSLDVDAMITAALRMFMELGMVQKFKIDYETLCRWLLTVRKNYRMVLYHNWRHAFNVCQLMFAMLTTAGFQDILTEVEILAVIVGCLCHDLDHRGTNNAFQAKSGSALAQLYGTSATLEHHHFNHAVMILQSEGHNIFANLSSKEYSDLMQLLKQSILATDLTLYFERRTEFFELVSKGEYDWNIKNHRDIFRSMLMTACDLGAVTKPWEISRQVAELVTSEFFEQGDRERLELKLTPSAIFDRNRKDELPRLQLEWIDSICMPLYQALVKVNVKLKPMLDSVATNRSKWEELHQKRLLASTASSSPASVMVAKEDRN

Compound | effect on stride length, in words (MPTP-treated mice; L-dopa 1 mg/kg alone, 20 minutes after administration) | Fold Selectivity for PDE7A versus PDE5A (PDE5A) | pIC50 (PDE7A) | potency of PDE7A inhibition, in words (PDE7A) | selectivity between PDE7A and PDE7B, in words (PDE7A) | Fold Selectivity, PDE7A (PDE7A) | selectivity for inhibition of the PDE7A enzyme as compared to the other PDEs (PDE7A) | Fold Selectivity for PDE7A versus PDE4A (PDE4A) | Fold Selectivity for PDE7A versus PDE11A (PDE11A) | Fold Selectivity for PDE7A versus PDE10A (PDE10A) | effect on stride length, in words (MPTP-treated mice; OM955 0.1 mg/kg alone, 20 minutes after administration) | effect on stride length, in words (MPTP-treated mice; OM955 0.5 mg/kg, 20 minutes (and one hour) after injection)
N[C@@H](Cc1ccc(O)c(O)c1)C(=O)O [L-dopa, levodopa, reference compound] | do not increase stride length when administered alone; also recorded: does not increase stride length in MPTP mice to a significant level | – | – | – | – | – | – | – | – | – | – | –
COc1cc(N)ccc1-c1cc2c(c(=O)[nH]1)C(C1CCCCC1)N=[N+]2C (stereo not drawn) [OM69] | – | 4630 fold | 8.89 | high potency | little or no selectivity | 1 fold | greater than 1000 fold | 6500 fold | 7070 fold | 1050 fold | – | –
O=C1Nc2c(Cl)ccc(OCCO)c2C2(CCCCC2)N1 [OM955] | – | 355 fold | 7.29 | moderate potency | little or no selectivity | 1 fold | greater than 100 fold | 113 fold | >192 fold | 379 fold | do not increase stride length when administered alone; also recorded: does not increase stride length in MPTP mice to a significant level | statistically significant improvement in the stride length; also recorded: fully restored to that of unlesioned animals; also recorded: full recovery of baseline stride length
